We go through five compounds from US20160287545A1, “COMPOUND PARTICULARLY FOR TREATING DEPRESSION AND ANXIETY” (priority 2012, published 2016).

The term solubility denotes the concentration that dissolves in the medium under given conditions.

In one series the test system is CD1 mice. Description: swimming test in CD1 mice, antidepressant action of inhaled terpenes versus imipramine. The series is classed as in vivo. The settings on record: for isoeffect dose per body weight taking into account mean absorption factor (60%): 700x0.6, inhaling; for isoeffect dose with respect to imipramine: individual single inhalation giving approximately the same immobility time as imipramine, vaporized dose; for intrinsic activity (full agonist action, dose-effect comparison with imipramine): swimming test, inhaled; for antidepressant activity: vaporized, inhaled for 24 hours (12+12 hours); for isoeffect dose per body weight: versus 30 mg/kg of imipramine. Here is the method: 4. For each test, CD-1® (ICR) Specific Pathogen Free NAF mice (16/18 g upon arrival) were used, originating from the supplier facility Charles River Laboratories, Calco, Italy; 5 mice for the control group, 5 mice for the reference test with imipramine, 5 mice for the substance tested in the first 4 tests and then 10 mice for all the other tests. The choice of CD1 mice was determined by the fact that it is considered to be the animal model suitable for performing the swimming test for the evaluation of substances having an antidepressant action.
5. For terpene vaporization, “Elettromatt Turispharma” electric vaporizers were used (PCT/EP 97/01897, inventors Bevilacqua M, Zaccagna C A), heated to a constant temperature of 90° C.
The three groups of mice were placed in three transparent plastic boxes with the size of 150 cm×75 cm and a volume di […] at a controlled temperature (19.0-21.0° C.), in air prefiltered with an HEPA absolute filter without flow, humidity (40-50%) and darkness/light cycle (12 hours/12 hours).
The control group received the carrier (physiological solution) by IP pathway.
The administration path of the substances being considered was intraperitoneal for imipramine and the pulmonary path was used for the terpene substances being considered, always vaporized with the same electric vaporizers.
Reference test substance: imipramine 30 mg/Kg/ip=30.000 mcg/Kg/ip, equal to 0.6 mg per animal, administered 30 minutes before the test.
Subsequent tests were performed with the individual components (35 mg repeated after 12 hours), in pairs (35 mg+35 mg, repeated after 12 hours) and then all three together (35+35+35 mg repeated after 12 hours).
The treatment was performed 30 minutes before the test for the control group and for the imipramine group intraperitoneally. The third group was subject, after the T0 test, to vaporization for 24 hours (12+12 hours) of the anonymous substance being considered.

Series [1] concerns mouse. Conditions: cited from earlier work.
The conditions of series [2]: cited from earlier work.
For the next series, the system named is rat. The settings on record: cited from earlier work.
Series [3] concerns mouse. Conditions: cited from earlier work. This is another data set of the same source.
The conditions of series [4]: in vivo; cited from earlier work.
For series [5] the following is noted: cited from earlier work. The source holds these as a separate data set.
A further series deals with patients with bulimia. Conditions: followed on for two years; cited from earlier work.
For series [6] the following is noted: rat; cited from earlier work.
For series [7] the following is noted: inhalation for 2 hours during a 50 W workload, healthy volunteers; cited from earlier work.
The test system of a further series is rats. The settings on record: inhaling, swimming test; cited from earlier work.
The mark [8] stands for this setting: 200 and 400 mg/kg orally, mouse.

For `CC12CCC(CC1)C(C)(C)O2` [1,8-cineol], in the series on CD1 mice, the “isoeffect dose per body weight taking into account mean absorption factor (60%)” value is 420 mg/kg; the “isoeffect dose with respect to imipramine” value was determined as 70 mg; the “intrinsic activity (full agonist action, dose-effect comparison with imipramine)” value came out at 1; the antidepressant activity entry is on record as “evident antidepressant activity”. Moreover, the “isoeffect dose per body weight” value in the series with CD1 mice is reported as 700 mg/kg. Also, in the series with mouse [1], the “acute toxicity, oral dose” value is on record as 2480 mg/kg. Moreover, in series [2], the “time to detection in blood after inhaling” value is 5 min. Further, in series [2] (inhaling), the “time to concentration maximum in blood” value is at most 18 min. Further, in the series with rat (oral dose between 100 and 400 mg/kilograms), the “effect of pretreatment with naloxone on anti-nociceptive action” value is given as “not canceled out by pretreatment with naloxone”. Moreover, the anti-nociceptive action entry in the series on rat (rat) is recorded as “comparable to morphine”. In the series with mouse [3] (setting [8]), the immobility time entry is recorded as “significant increase in the immobility time” and the “latency of pentobarbital sleep” value is “reduced latency of pentobarbital sleep”. Besides, in the series on mouse [3] (in the mouse), the “dose observed in the literature” value was 200 to 400 mg/kg. Besides, the “motor coordination in the rotarod test” value in the series on mouse [3] (orally, mouse) was “no effects on motor coordination”.

For `CC(=O)O[C@@H]1CC[C@@]2(C)[C@@H](CC[C@]3(C)[C@@H]2C(=O)C=C2[C@@H]4[C@@H](C)[C@H](C)CC[C@]4(C)CC[C@]23C)[C@@]1(C)C(=O)O` [AKBA, acetyl-11-keto-beta-boswellic acid], in series [4], the brain/plasma ratio is recorded as around 0.81.

Consider `C[C@H]1[C@H](C)CC[C@]2(C)CC[C@]3(C)C(=CC(=O)[C@@H]4[C@@]5(C)CC[C@@H](O)[C@](C)(C(=O)O)[C@@H]5CC[C@]43C)[C@H]12` [KBA, 11-keto-beta-boswellic acid], for which the brain/plasma ratio result in series [4] is reported as “approximately 0.51”.

Consider `CN(C)CCCN1c2ccccc2CCc2ccccc21` [imipramine, imipramine chloride hydrate], for which the “total mean immobility time” value in the series on CD1 mice (imipramine 30 mg/Kg ip 30 minutes before the test, mean of all 9 tests, 45 mice) came out at 41.11±16.12. For the same compound, the solubility in [5] was 50 mg/mL. For the same compound, in the series on patients with bulimia, the “patients with considerable success” value was 19 out of 20.

Take `C=C(C)[C@H]1CC=C(C)CC1` [limonene, (R)-(+)-limonene]: in the series on CD1 mice, the “isoeffect dose per body weight taking into account mean absorption factor (60%)” value turned out to be 420 mg/kg; the “isoeffect dose with respect to imipramine” value turned out to be 70 mg; the “intrinsic activity (full agonist action, dose-effect comparison with imipramine)” value was found to be 1; the antidepressant activity entry is “evident antidepressant activity”. Also, in the series on CD1 mice, the “isoeffect dose per body weight” value was 700 mg/kg. The oral bioavailability in series [6] was 43.0%. For the same compound, in [7], the “pulmonary uptake, of the administered quantity” value is recorded as 70%. Besides, the immobility time entry in the series on rats is “reduces significantly the immobility time”.
